Patent US20240246967A1, “AXL COMPOUNDS” (ARCUS BIOSCIENCES, INC., priority 2021, published 2024)

What was measured:
human TYRO3 = target: T1, human TYRO3 (Homo sapiens, UniProt Q06418); test: HTRF KinEASE-TK biochemical potency assay, TYRO3; conditions: 1 nM TYRO3, 700 μM ATP, 800 nM TK Substrate-biotin
T1 construct: purchased Invitrogen
T1 sequence (Q06418 41-890): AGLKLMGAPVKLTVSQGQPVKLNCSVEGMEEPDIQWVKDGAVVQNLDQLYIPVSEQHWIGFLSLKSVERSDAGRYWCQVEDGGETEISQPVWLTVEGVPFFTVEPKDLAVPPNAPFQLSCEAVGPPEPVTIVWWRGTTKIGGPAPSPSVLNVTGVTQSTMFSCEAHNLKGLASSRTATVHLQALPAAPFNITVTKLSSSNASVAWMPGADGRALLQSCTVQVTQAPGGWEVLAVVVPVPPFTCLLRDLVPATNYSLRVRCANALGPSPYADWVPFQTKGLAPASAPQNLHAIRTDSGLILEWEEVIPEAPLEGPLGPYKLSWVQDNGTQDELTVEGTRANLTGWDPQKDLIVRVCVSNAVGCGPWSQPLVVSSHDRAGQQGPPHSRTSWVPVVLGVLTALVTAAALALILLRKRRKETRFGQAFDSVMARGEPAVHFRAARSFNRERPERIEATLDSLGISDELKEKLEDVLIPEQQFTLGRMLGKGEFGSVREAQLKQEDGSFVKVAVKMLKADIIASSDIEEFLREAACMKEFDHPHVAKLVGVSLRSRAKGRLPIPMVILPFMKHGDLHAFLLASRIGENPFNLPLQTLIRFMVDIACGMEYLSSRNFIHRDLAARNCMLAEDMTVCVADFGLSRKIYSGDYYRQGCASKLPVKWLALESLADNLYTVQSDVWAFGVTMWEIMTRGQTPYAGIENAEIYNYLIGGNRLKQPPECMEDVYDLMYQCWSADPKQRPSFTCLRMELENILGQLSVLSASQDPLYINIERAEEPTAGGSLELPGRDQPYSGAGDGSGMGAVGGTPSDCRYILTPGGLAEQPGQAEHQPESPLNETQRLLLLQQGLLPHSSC
Method in brief: (§1)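 Final conditions: 5 nM AXL, 1 nM TYRO3 or MER, 50 mM HEPES pH 7.4, 10 mM MgCl2, 0.01% BSA, 1 mM DTT, 700 μM ATP. Reaction ran 2 h at RT after 1 h preincubation with compound; HTRF signal read at 665/620 nm.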

human MER = target: T2, human MER (Homo sapiens, UniProt Q12866); test: HTRF KinEASE-TK biochemical potency assay, MER; conditions: 1 nM MER, 700 μM ATP, 800 nM TK Substrate-biotin
T2 construct: purchased Invitrogen
T2 sequence (Q12866 21-999): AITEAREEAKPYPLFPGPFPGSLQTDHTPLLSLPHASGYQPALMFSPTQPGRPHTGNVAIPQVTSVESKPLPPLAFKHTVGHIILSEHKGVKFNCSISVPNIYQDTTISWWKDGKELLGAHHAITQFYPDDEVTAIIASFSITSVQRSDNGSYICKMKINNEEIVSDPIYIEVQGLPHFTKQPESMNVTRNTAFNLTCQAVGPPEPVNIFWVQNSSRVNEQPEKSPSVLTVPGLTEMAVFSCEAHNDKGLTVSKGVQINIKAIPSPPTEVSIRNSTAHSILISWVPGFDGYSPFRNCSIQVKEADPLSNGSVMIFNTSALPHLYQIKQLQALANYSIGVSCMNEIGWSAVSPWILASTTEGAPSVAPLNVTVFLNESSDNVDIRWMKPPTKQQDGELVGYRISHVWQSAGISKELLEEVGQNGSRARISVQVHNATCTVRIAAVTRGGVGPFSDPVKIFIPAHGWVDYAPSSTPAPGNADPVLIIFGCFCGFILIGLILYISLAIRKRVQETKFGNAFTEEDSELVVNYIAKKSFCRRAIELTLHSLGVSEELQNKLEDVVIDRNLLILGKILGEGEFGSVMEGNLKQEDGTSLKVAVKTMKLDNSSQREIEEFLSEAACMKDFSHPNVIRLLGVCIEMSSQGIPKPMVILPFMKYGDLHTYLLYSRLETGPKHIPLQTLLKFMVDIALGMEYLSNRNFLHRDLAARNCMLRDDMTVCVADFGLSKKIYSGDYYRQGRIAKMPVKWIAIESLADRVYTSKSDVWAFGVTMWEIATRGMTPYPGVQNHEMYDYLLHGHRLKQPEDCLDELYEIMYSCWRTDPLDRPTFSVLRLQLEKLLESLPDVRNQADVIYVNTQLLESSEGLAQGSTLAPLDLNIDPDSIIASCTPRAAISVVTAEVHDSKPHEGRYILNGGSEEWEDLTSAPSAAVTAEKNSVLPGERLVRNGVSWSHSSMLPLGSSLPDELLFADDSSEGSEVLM
Method in brief: as §1

C[C@@H]1CCCN1C1(C)CCc2ccc(-c3cnc4[nH]nc(-c5ccc(C(=O)N6CCCC6)cc5)c4c3)cc2CC1 (stereo partly drawn) [Example 118, (2R)-2-Methyl-1-(7-methyl-2-{3-[4-(pyrrolidine-1-carbonyl)phenyl]-1H-pyrazolo[3,4-b]pyridin-5-yl}-6,7,8,9-tetrahydro-5H-benzo[7]annulen-7-yl)pyrrolidine]
IC50 (human TYRO3): > 1 µM | IC50 (human MER): > 1 µM

CC1(N2CCc3ccc(-c4cnc5[nH]nc(-c6ccc(S(=O)(=O)C7CC7)cc6)c5c4)cc3CC2)CCCC1 [Example 120, 7-{3-[4-(Cyclopropanesulfonyl)phenyl]-1H-pyrazolo[3,4-b]pyridin-5-yl}-3-(1-methylcyclopentyl)-2,3,4,5-tetrahydro-1H-3-benzazepine]
IC50 (human TYRO3): 0.1 to 1 µM | IC50 (human MER): > 1 µM

C[C@@H]1CCCN1C1CCc2ccc(-c3cnc4[nH]nc(-c5ccc(C(C)(C)O)c(C(F)(F)F)c5)c4c3)cc2CC1 (stereo partly drawn) [Example 20, 2-[4-(5-{7-[(2R)-2-Methylpyrrolidin-1-yl]-6,7,8,9-tetrahydro-5H-benzo[7]annulen-2-yl}-1H-pyrazolo[3,4-b]pyridin-3-yl)-2-(trifluoromethyl)phenyl]propan-2-ol]
IC50 (human TYRO3): < 0.1 µM | IC50 (human MER): 0.1 to 1 µM

C[C@@H]1CCCN1C1CCc2ccc(-c3cnc4[nH]nc(-c5ccc(S(=O)(=O)C6CC6)cc5)c4c3)cc2CC1 (stereo partly drawn) [Example 39, 3-(4-(Cyclopropylsulfonyl)phenyl)-5-(7-((R)-2-methylpyrrolidin-1-yl)-6,7,8,9-tetrahydro-5H-benzo[7]annulen-2-yl)-1H-pyrazolo[3,4-b]pyridine]
IC50 (human TYRO3): 0.1 to 1 µM | IC50 (human MER): 0.1 to 1 µM

CC(C)(O)c1ccc(-c2n[nH]c3ncc(-c4ccc5c(c4)CCN(C4CCCC4)CC5)cc23)c(F)c1 [Example 17, 2-{4-[5-(3-Cyclopentyl-2,3,4,5-tetrahydro-1H-3-benzazepin-7-yl)-1H-pyrazolo[3,4-b]pyridin-3-yl]-3-fluorophenyl}propan-2-ol]
IC50 (human TYRO3): 0.1 to 1 µM | IC50 (human MER): > 1 µM

CC(C)(O)c1ccc(-c2n[nH]c3ncc(-c4ccc5c(c4)CCN(C4CCCC4)CC5)cc23)cc1Cl [Example 12, 2-{2-Chloro-4-[5-(3-cyclopentyl-2,3,4,5-tetrahydro-1H-3-benzazepin-7-yl)-1H-pyrazolo[3,4-b]pyridin-3-yl]phenyl}propan-2-ol]
IC50 (human TYRO3): > 1 µM | IC50 (human MER): > 1 µM

C[C@@H]1CCCN1C1CCc2ccc(-c3cnc4[nH]nc(-c5ccc(C(C)(C)O)cn5)c4c3)cc2CC1 (stereo partly drawn) [Example 97, 2-[6-(5-{7-[(2R)-2-Methylpyrrolidin-1-yl]-6,7,8,9-tetrahydro-5H-benzo[7]annulen-2-yl}-1H-pyrazolo[3,4-b]pyridin-3-yl)pyridin-3-yl]propan-2-ol]
IC50 (human TYRO3): 0.1 to 1 µM | IC50 (human MER): > 1 µM

Cc1cc(-c2n[nH]c3ncc(-c4ccc5c(c4)CCN(C4CC4)CC5)cc23)ccc1C(=O)N1CCNCC1 [Example 119, 3-Cyclopropyl-7-{3-[3-methyl-4-(piperazine-1-carbonyl)phenyl]-1H-pyrazolo[3,4-b]pyridin-5-yl}-2,3,4,5-tetrahydro-1H-3-benzazepine]
IC50 (human TYRO3): < 0.1 µM | IC50 (human MER): > 1 µM

C[C@@H]1CCCN1C1CCc2ccc(-c3cnc4[nH]nc(-c5ccc(S(N)(=O)=O)c(Cl)c5)c4c3)cc2CC1 (stereo partly drawn) [Example 94, 2-Chloro-4-(5-(7-((R)-2-methylpyrrolidin-1-yl)-6,7,8,9-tetrahydro-5H-benzo[7]annulen-2-yl)-1H-pyrazolo[3,4-b]pyridin-3-yl)benzenesulfonamide]
IC50 (human TYRO3): < 0.1 µM | IC50 (human MER): 0.1 to 1 µM

Cc1cc(-c2n[nH]c3ncc(-c4ccc5c(c4)CC[C@@H](N4CCCC4)CC5)cc23)cc(Cl)c1C(N)=O [Example 50, 2-Chloro-6-methyl-4-{5-[(7S)-7-(pyrrolidin-1-yl)-6,7,8,9-tetrahydro-5H-benzo[7]annulen-2-yl]-1H-pyrazolo[3,4-b]pyridin-3-yl}benzamide]
IC50 (human TYRO3): < 0.1 µM | IC50 (human MER): < 0.1 µM

COc1cc(-c2n[nH]c3ncc(-c4ccc5c(c4)CCC(C)(N4CCC[C@H]4C)CC5)cc23)ccc1C(N)=O (stereo partly drawn) [Example 53, 2-Methoxy-4-(5-(7-methyl-7-((R)-2-methylpyrrolidin-1-yl)-6,7,8,9-tetrahydro-5H-benzo[7]annulen-2-yl)-1H-pyrazolo[3,4-b]pyridin-3-yl)benzamide]
IC50 (human TYRO3): < 0.1 µM | IC50 (human MER): 0.1 to 1 µM

CS(=O)(=O)c1ccc(-c2n[nH]c3ncc(-c4ccc5c(c4)CCN(C4CCCC4)CC5)cc23)cc1Cl [Example 31, 7-(3-(3-Chloro-4-(methylsulfonyl)phenyl)-1H-pyrazolo[3,4-b]pyridin-5-yl)-3-cyclopentyl-2,3,4,5-tetrahydro-1H-benzo[d]azepine]
IC50 (human TYRO3): < 0.1 µM | IC50 (human MER): 0.1 to 1 µM

CS(=O)(=O)N1CCC(c2n[nH]c3ncc(-c4ccc5c(c4)CCC(N4CCCC4)CC5)cc23)CC1 (stereo not drawn) [Example 23, 1-Methanesulfonyl-4-{5-[7-(pyrrolidin-1-yl)-6,7,8,9-tetrahydro-5H-benzo[7]annulen-2-yl]-1H-pyrazolo[3,4-b]pyridin-3-yl}piperidine]
IC50 (human TYRO3): 0.1 to 1 µM | IC50 (human MER): 0.1 to 1 µM

O=S(=O)(c1ccc(-c2n[nH]c3ncc(-c4ccc5c(c4)CC[C@@H](N4CCCC4)CC5)cc23)cc1)C1CC1 [Example 40, (S)-3-(4-(Cyclopropylsulfonyl)phenyl)-5-(7-(pyrrolidin-1-yl)-6,7,8,9-tetrahydro-5H-benzo[7]annulen-2-yl)-1H-pyrazolo[3,4-b]pyridine]
IC50 (human TYRO3): < 0.1 µM | IC50 (human MER): 0.1 to 1 µM

O=C([C@H]1CCCN1)N1CCc2ccc(-c3cnc4[nH]nc(-c5ccc(S(=O)(=O)C6CC6)cc5)c4c3)cc2CC1 [Example 113, 7-{3-[4-(Cyclopropanesulfonyl)phenyl]-1H-pyrazolo[3,4-b]pyridin-5-yl}-3-[(2R)-pyrrolidine-2-carbonyl]-2,3,4,5-tetrahydro-1H-3-benzazepine]
IC50 (human TYRO3): 0.1 to 1 µM | IC50 (human MER): > 1 µM

O=C([C@@H]1CCCN1)N1CCc2ccc(-c3cnc4[nH]nc(-c5ccc(S(=O)(=O)C6CC6)cc5)c4c3)cc2CC1 [Example 112, 7-{3-[4-(Cyclopropanesulfonyl)phenyl]-1H-pyrazolo[3,4-b]pyridin-5-yl}-3-[(2S)-pyrrolidine-2-carbonyl]-2,3,4,5-tetrahydro-1H-3-benzazepine]
IC50 (human TYRO3): 0.1 to 1 µM | IC50 (human MER): > 1 µM

O=C1CCCN1c1ccc(-c2n[nH]c3ncc(-c4ccc5c(c4)CC[C@@H](N4C6COCC4C6)CC5)cc23)cc1 [Example 122, 1-(4-{5-[(7S)-7-{3-oxa-6-azabicyclo[3.1.1]heptan-6-yl}-6,7,8,9-tetrahydro-5H-benzo[7]annulen-2-yl]-2H-pyrazolo[3,4-b]pyridin-3-yl}phenyl)pyrrolidin-2-one]
IC50 (human TYRO3): > 1 µM | IC50 (human MER): > 1 µM

Cc1cc(-c2n[nH]c3ncc(-c4ccc5c(c4)CC[C@@H](N4CCCC4)CC5)cc23)cc(C)c1C(=O)N1CCNCC1 [Example 55, 1-(2,6-Dimethyl-4-{5-[(7S)-7-(pyrrolidin-1-yl)-6,7,8,9-tetrahydro-5H-benzo[7]annulen-2-yl]-1H-pyrazolo[3,4-b]pyridin-3-yl}benzoyl)piperazine]
IC50 (human TYRO3): < 0.1 µM | IC50 (human MER): 0.1 to 1 µM
